Results as given in US20250297015A1, “DRUG CONDITIONING REGIMEN FOR SICKLE CELL DISEASE” (NEW YORK BLOOD CENTER, INC., priority 2022, published 2025).
“Also recorded” adds a separate entry of the source.

Assays:
Assay type in all cases: in vivo
[1] = test system: peripheral blood hematopoietic progenitor cells (HPC), LSKF cells; assay: Mobilization of peripheral blood hematopoietic progenitor cells (LSKF) in SCD mouse model
Protocol: (§1) This study uses a SCD mouse model, SS Townes mice, to evaluate the effects of GBT-1118, the murine analog of voxelotor, to mobilize hematopoietic progenitor cells (HPC). GBT-1118 (approximately 16 mg/mouse/day) was administered via chow (4 grams of GBT-1118 per kg of chow) daily for a month. The mice were then administered a single dose of plerixafor (10 mg/kg) via subcutaneous injection. […] Peripheral blood was collected in all groups prior to and two-and three-weeks post treatment with GBT-1118 (or control) to assess hemoglobin (Hgb), hematocrit (Hct), aged neutrophils, and circulating HPCs. One to two hrs after plerixafor, peripheral blood was collected for circulating HPC (LSKF) enumeration. Assay results in the groups are compared using ANOVA or Kruskal-Wallis testing.
Gating with and without CD45^+ was performed due to the erythroid hyperplasia seen in SCD, where CD45^+ expression decreases along with erythroid maturation (Boulais et al. Immunity 49:627-639, 2018) and the degree of erythroid hyperplasia in each mouse was unknown. The percentage of CD45^+ cells ranged from 60-80% per sample. […] As red cell transfusion tends to decrease circulating hematopoietic stem cells (HSCs) (Tang A et al, Blood 2021), this may be due to the increased bone marrow HSCs (FIGS. 4A and 4B) spilling into peripheral blood due to residual mesenchymal stem cell dysfunction.

[2] = test system: bone marrow HPCs and hematopoietic stem cells (HSCs); assay: Bone marrow HPCs and HSCs with and without plerixafor in SCD mouse model; details: SS Townes mice
Protocol: as §1
(§2) Also evaluated were bone marrow HPCs and hematopoietic stem cells (HSCs) with and without plerixafor and peripheral blood inflammatory markers (aged neutrophils, sVAM-1, P-selectin, and E-selectin) with and without plerixafor.
Bone marrow LSK (Lin^−Sca1^+ckit^+) is a less HSC-specific measure than bone marrow HSC (Lin^−Sca1^+ckit+CD48^−CD150^+); the markers Flt3 and CD135 are not present in bone marrow as they are in peripheral blood.

SS Townes mice = assay: Peripheral blood response (Hb, Hct, reticulocytes, WBC) to GBT-1118 in SCD mouse model
Protocol: as §1

[3] = test system: peripheral blood inflammatory markers; assay: Peripheral blood inflammatory markers (aged neutrophils, sVCAM-1, P-selectin, E-selectin) in SCD mouse model
Protocol: as §1, §2
There is an increase in the aged neutrophil population in SCD.
There is evidence that SCD is associated with a chronic inflammatory state. Therefore, inflammatory markers (sVCAM-1, P-selectin, and E-selectin) in the peripheral blood of mice treated with GBT-1118 alone or with plerixafor were evaluated. […] This increase may be related to increased WBC and absolute neutrophil counts (ANC). Plasma P-selectin and E-selectin were not increased with GBT-1118 alone or with plerixafor (FIGS. 6B and 6C).

plasma P-selectin ([3]; GBT-1118 alone (FIG. 6B)): not increased | plasma E-selectin ([3]; GBT-1118 alone (FIG. 6C)): not increased | plasma P-selectin ([3]; GBT-1118 with plerixafor (FIG. 6B)): not increased | plasma E-selectin ([3]; GBT-1118 with plerixafor (FIG. 6C)): not increased | plasma sVCAM-1 ([3]; after GBT-1118 treatment (FIG. 6A)): small but significant increase | peripheral blood aged neutrophils (CXCR4high CD62Llow) ([3]; post-mobilization with plerixafor, GBT-1118 versus control (FIG. 5A-B)): not statistically significant
SMILES: O=Cc1c(O)cccc1OC[C@@H]1CCCCN1C(=O)c1cccnc1 [GBT-1118]
peripheral blood LSKF cell concentration ([1]; SS Townes mice, compared to control (FIG. 3B)): significantly increased | percentage of peripheral blood LSKF (Lin-Sca1+ckit+Flt3-CD135-) cells mobilized ([1]; with CD45+ gating, plerixafor mobilization, 1-2 h after plerixafor, compared to control animals (FIGS. 3A and 3C)): higher percentage | bone marrow HSCs, as % of Lin- cells ([2]; GBT-1118 alone versus control (FIG. 4A)): significantly increased | total number of bone marrow HSC per femur ([2]; GBT-1118 versus control (FIG. 4B)): trend towards an increase; also recorded: trend towards increased | hemoglobin (Hb) (SS Townes mice; GBT-1118 via chow approx. 16 mg/mouse/day, peripheral blood before vs 2 and 3 weeks after treatment (FIG. 1A)): increase | hematocrit (Hct) (SS Townes mice; GBT-1118 via chow, before vs 2 and 3 weeks after treatment (FIG. 1B)): increase | percentage of reticulocytes (retic %) (SS Townes mice; GBT-1118 via chow, before vs 2 and 3 weeks after treatment (FIG. 1C)): decrease | number of white blood cells (WBC) (SS Townes mice; GBT-1118 via chow, before vs 2 and 3 weeks after treatment (FIG. 1D)): essentially unchanged
